Experimental data as given in patent publication US10752615B2, “Spirocyclic containing compounds and pharmaceutical uses thereof” (GB005, Inc., priority 2016, dated 2020).

Key:
[1] = biological target: BTK (Homo sapiens (Human), UniProt Q06187); assay: Kinase inhibition assay (Nanosyn, microfluidic detection), BTK; assay type: biochemical; details: 1 mM ATP, 3 hours at 25° C.
Method: (§1) The in vitro kinase assays were performed at Nanosyn (Santa Clara, Calif.) utilizing microfluidic detection technology. The test compounds were serially pre-diluted in DMSO and added, by the acoustic dispensing (Labcyte® 550), directly to 384 well assay plates into 10 uL of a buffer with enzyme (ITK, TXK, BTK or TEC) comprising: 100 mM HEPES, pH7.5, 5 mM MgCl2, 0.1% bovine serum albumin, 1 mM DTT, 0.01% Triton X-100 and the enzyme. Final DMSO concentration was maintained at 1% in all samples, including the controls. The reactions were initiated by addition of ATP (1 mM final concentration) and the fluorescently labeled peptide substrate to a final concentration of 1 uM, and incubated for 3 hours at 25° C. Following incubation, the reactions were quenched by addition of 40 μL of termination buffer (100 mM HEPES, pH7.5, 0.01% Triton X-100, 50 mM EDTA). Terminated plates were analyzed using Caliper LabChip® 3000 microfluidic electrophoresis instrument (Caliper Life Sciences/Perkin Elmer). The enzymatic modification of the peptide substrate (phosphorylation) results in a change of net charge enabling electrophoretic separation of product from substrate. As substrate and product are separated by electrophoresis, two peaks of fluorescence are observed. Change in the relative fluorescence intensity of the substrate and product peaks was the parameter measured, reflecting enzyme activity. In the presence of inhibitor, the ratio between product and substrate is altered: signal of the product decreases, while the signal of the substrate increases. Activity in each test sample was determined as the product to sum ratio (PSR): P/(S+P), where P is the peak height of the product and S is the peak height of the […]. For each compound, enzyme activity was measured at 12 concentrations spaced by 3× dilution intervals. Negative control samples (0%-inhibition in the absence of inhibitor, DMSO only) and positive control samples (100%-inhibition, in the absence of enzyme or in the presence of control inhibitor) were assembled in replicates of four and were used to calculate %-inhibition values in the presence of compounds. Percent inhibition (Pinh) was determined using the following equation: Pinh=(PSR0%−PSRinh)/(PSR0%−PSR100%)*100, where PSRinh is the product sum ratio in the presence of inhibitor, PSR0% is the product sum ratio in the absence of inhibitor and PSR100% is the product sum ratio in 100%-inhibition control samples. To determine IC50 values, the inhibition curves (Pinh versus inhibitor concentration) were fitted by 4 parameter sigmoid dose-response model using XLfit software (IDBS).

[2] = biological target: TXK (Homo sapiens (Human), UniProt P42681); assay: Kinase inhibition assay (Nanosyn, microfluidic detection), TXK; assay type: biochemical; details: 1 mM ATP, 3 hours at 25° C.
TXK, sequence (P42681 whole entry): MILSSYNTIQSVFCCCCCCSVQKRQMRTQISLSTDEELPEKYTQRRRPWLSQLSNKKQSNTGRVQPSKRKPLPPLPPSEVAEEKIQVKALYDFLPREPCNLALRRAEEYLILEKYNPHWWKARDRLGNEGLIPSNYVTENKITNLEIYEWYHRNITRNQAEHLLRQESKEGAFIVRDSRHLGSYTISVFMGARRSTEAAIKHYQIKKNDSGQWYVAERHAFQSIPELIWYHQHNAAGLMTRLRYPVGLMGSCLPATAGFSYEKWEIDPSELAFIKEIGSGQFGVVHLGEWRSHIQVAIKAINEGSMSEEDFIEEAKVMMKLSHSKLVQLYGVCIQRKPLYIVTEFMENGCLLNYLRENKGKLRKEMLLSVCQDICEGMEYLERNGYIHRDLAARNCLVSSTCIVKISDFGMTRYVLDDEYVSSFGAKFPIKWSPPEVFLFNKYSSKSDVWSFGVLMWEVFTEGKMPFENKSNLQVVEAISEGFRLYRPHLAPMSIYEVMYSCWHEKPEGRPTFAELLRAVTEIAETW
Method: as §1, with “The enzymatic modification of the peptide substrate (phosphorylation) results in a change of net charge enabling electrophoretic separation of product from substrate.” left out

BTK, sequence (Q06187 whole entry): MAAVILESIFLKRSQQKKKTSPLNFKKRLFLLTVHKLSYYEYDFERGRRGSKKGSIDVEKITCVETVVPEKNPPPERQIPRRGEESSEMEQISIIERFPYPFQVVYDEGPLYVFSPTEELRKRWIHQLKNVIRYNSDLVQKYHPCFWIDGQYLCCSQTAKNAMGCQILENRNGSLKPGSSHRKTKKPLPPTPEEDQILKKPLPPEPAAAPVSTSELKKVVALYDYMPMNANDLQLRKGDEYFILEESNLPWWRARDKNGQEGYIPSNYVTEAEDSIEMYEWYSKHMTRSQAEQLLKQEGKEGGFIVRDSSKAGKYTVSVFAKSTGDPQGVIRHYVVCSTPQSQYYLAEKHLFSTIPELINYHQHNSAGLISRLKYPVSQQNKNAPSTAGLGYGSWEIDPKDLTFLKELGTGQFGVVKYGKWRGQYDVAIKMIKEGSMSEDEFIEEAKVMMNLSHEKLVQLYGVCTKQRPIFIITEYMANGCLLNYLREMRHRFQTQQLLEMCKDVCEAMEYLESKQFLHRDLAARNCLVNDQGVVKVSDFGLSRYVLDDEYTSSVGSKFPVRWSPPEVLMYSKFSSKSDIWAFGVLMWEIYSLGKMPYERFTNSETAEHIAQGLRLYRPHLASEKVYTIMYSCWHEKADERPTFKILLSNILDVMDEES

| Structure (SMILES) | IC50 [1] [nM] | IC50 [2] [nM] |
| --- | --- | --- |
| C=CC(=O)N1CC[C@]2(C1)C[C@H](n1c(NC(=O)c3ccc(NC(=O)CC)s3)nc3ccccc31)C2 [Compound 105] | 112 | 23.2 |
| C=CC(=O)N1CC[C@]2(C1)C[C@H](n1c(NC(=O)c3ccc(-c4cncnc4C)s3)nc3ccccc31)C2 [Compound 134] | 8.36 | 1.01 |
| C=CC(=O)N1CC[C@]2(C1)C[C@@H](n1c(NC(=O)c3ccc(-c4cnco4)s3)nc3ccc(CN4CCCC4)cc31)C2 [Compound 86] | 8.41 | 2.24 |
| C=CC(=O)N1CC[C@]2(C1)C[C@H](n1c(NC(=O)c3cccc(-c4cnco4)c3)nc3cc(CN[C@@H](C)C(C)(C)C)ccc31)C2 [Compound 38] | 4.08 | 0.67 |
| C=CC(=O)N1CC[C@]2(C1)C[C@H](n1c(NC(=O)c3ccc(-c4cc[nH]c(=O)c4)s3)nc3cc(CO)ccc31)C2 [Compound 29] | 0.84 | 0.27 |
| C=CC(=O)N1CC[C@]2(C1)C[C@H](n1c(NC(=O)c3ccno3)nc3cc(CN[C@@H](C)C(C)(C)C)ccc31)C2 [Compound 21] | 1.54 | 1.22 |
| C=CC(=O)N1CC[C@]2(C1)C[C@H](n1c(NC(=O)c3ccc(OC)nc3)nc3cc(CN[C@@H](C)C(C)(C)C)ccc31)C2 [Compound 32] | 5.45 | 0.7 |
| C=CC(=O)N1CC[C@]2(C1)C[C@@H](n1c(NC(=O)c3ccc(-c4cnco4)s3)nc3cccc(F)c31)C2 [Compound 62] | 10.5 | 1.58 |
| C=CC(=O)N1CC[C@]2(C1)C[C@H](n1c(NC(=O)c3cccc(-c4cnco4)c3)nc3ccccc31)C2 [Compound 49] | 13.7 | 1.39 |
| C=CC(=O)N1CC[C@]2(C1)C[C@H](n1c(NC(=O)c3ccc(-c4cnco4)s3)nc3cc(N(C)C(C)=O)ccc31)C2 [Compound 53] | 0.64 | 0.39 |
| C=CC(=O)N1CC[C@]2(C1)C[C@H](n1c(NC(=O)c3ccc(C(F)F)s3)nc3ccccc31)C2 [Compound 15] | 4.4 | 0.55 |
| C=CC(=O)N1CC[C@]2(C1)C[C@H](n1c(NC(=O)c3ccc(-c4ccc(C)nc4)s3)nc3ccccc31)C2 [Compound 143] | 7.92 | 9.08 |
| C=CC(=O)N1CC[C@]2(C1)C[C@H](n1c(NC(=O)c3ccc(-c4ccc(OC)nc4)s3)nc3ccccc31)C2 [Compound 95] | 19.4 | 9.12 |
| C=CC(=O)N1CC[C@]2(C1)C[C@H](n1c(NC(=O)c3ccc(-c4cnco4)s3)nc3cc(CN4CCOCC4)ccc31)C2 [Compound 41] | 1.81 | 0.92 |
| C=CC(=O)N1CC[C@]2(C1)C[C@H](n1c(NC(=O)c3ccc(-c4cnco4)s3)nc3cc(CN[C@H]4C[C@H](O)C4)ccc31)C2 [Compound 43] | 0.53 | 0.32 |
| C=CC(=O)N1CC[C@]2(C1)C[C@H](n1c(NC(=O)c3ccc(-c4cnco4)s3)nc3cc(CN4CCCC4)ccc31)C2 [Compound 40] | 1.16 | 0.72 |
| C=CC(=O)N1CC[C@]2(C1)C[C@@H](n1c(NC(=O)c3ccc(-c4cnco4)s3)nc3ccc(CO)cc31)C2 [Compound 78] | 11.7 | 2.34 |
| C=CC(=O)N1CC[C@]2(C1)C[C@H](n1c(NC(=O)c3ccc(Oc4ccccc4)nc3)nc3ccccc31)C2 [Compound 66] | 11.2 | 4.34 |
| C=CC(=O)N1CC[C@]2(C1)C[C@H](n1c(NC(=O)c3ccc(C)nc3)nc3ccccc31)C2 [Compound 47] | 11.3 | 2.69 |

| Structure (SMILES) | IC50 [1] [nM] | IC50 [2] [nM] |
| --- | --- | --- |
| C=CC(=O)N1CC[C@]2(C1)C[C@H](n1c(NC(=O)c3cccs3)nc3ccccc31)C2 [Compound 82] | 33.2 | 3.33 |
| C=CC(=O)N1CC[C@]2(C1)C[C@H](n1c(NC(=O)c3ccns3)nc3ccccc31)C2 [Compound 46] | 1.44 | 1.1 |
| C=CC(=O)N1CC[C@]2(C1)C[C@H](n1c(NC(=O)c3cnc(C)s3)nc3cc(CN[C@@H](C)C(C)(C)C)ccc31)C2 [Compound 8] | 2.36 | 0.67 |
| C=CC(=O)N1CC[C@]2(C1)C[C@H](n1c(NC(=O)c3ccc(-c4cnc(C)nc4)s3)nc3ccccc31)C2 [Compound 135] | 12.7 | 8.67 |
| C=CC(=O)N1CC[C@]2(C1)C[C@H](n1c(NC(=O)c3ccc(-c4ccccc4)nc3)nc3cc(CN[C@@H](C)C(C)(C)C)ccc31)C2 [Compound 33] | 0.78 | 0.32 |
| C=CC(=O)N1CC[C@]2(C1)C[C@H](n1c(NC(=O)c3ccc(-c4ccncn4)s3)nc3ccccc31)C2 [Compound 133] | 3.27 | 0.37 |
| C=CC(=O)N1CC[C@]2(C1)C[C@H](n1c(NC(=O)c3ccc(-c4cnn(C)c4)s3)nc3ccccc31)C2 [Compound 113] | 4.63 | 1.32 |
| C=CC(=O)N1CC[C@]2(C1)C[C@H](n1c(NC(=O)c3ccc(-c4cnco4)s3)nc3cccc(F)c31)C2 [Compound 56] | 1.56 | 0.26 |
| C=CC(=O)N1CC[C@]2(C1)C[C@H](n1c(NC(=O)c3ccc(-c4ccccn4)s3)nc3ccccc31)C2 [Compound 74] | 25.8 | 1.62 |
| C=CC(=O)N1CC[C@]2(C1)C[C@H](n1c(NC(=O)c3ccc(-c4cccc(NC)n4)s3)nc3ccccc31)C2 [Compound 139] | 1.54 | 0.75 |
| C=CC(=O)N1CC[C@]2(C1)C[C@H](n1c(NC(=O)c3ccc(-c4ccc(=O)n(C)c4)s3)nc3ccccc31)C2 [Compound 108] | 10.4 | 1.02 |
| C=CC(=O)N1CC[C@]2(C1)C[C@H](n1c(NC(=O)c3ccc(-c4cnco4)s3)nc3cc(N(C)C(=O)C4CCOCC4)ccc31)C2 [Compound 51] | 0.73 | 0.44 |
| C=CC(=O)N1CC[C@]2(C1)C[C@H](n1c(NC(=O)c3ccc(-n4cccn4)s3)nc3ccccc31)C2 [Compound 89] | 23.7 | 3.17 |
| C=CC(=O)N1CC[C@]2(C1)C[C@H](n1c(NC(=O)c3ccc(-c4ccnc(CO)c4)s3)nc3ccccc31)C2 [Compound 146] | 0.57 | 0.22 |
| C=CC(=O)N1CC[C@]2(C1)C[C@H](n1c(NC(=O)c3ccc(-c4cnco4)s3)nc3ccc(Cl)cc31)C2 [Compound 65] | 1.99 | 0.42 |
| C=CC(=O)N1CC[C@]2(C1)C[C@H](n1c(NC(=O)c3ccc(-c4cccnn4)s3)nc3ccccc31)C2 [Compound 76] | 22.6 | 2.8 |
| C=CC(=O)N1CC[C@]2(C1)C[C@H](n1c(NC(=O)c3ccc(-c4ccccc4)s3)nc3ccccc31)C2 [Compound 103] | 6.12 | 0.93 |
| C=CC(=O)N1CC[C@]2(C1)C[C@H](n1c(NC(=O)c3ccc(-c4cnco4)s3)nc3c(F)cccc31)C2 [Compound 61] | 6.77 | 0.49 |
